# Experiment: Binding affinity to bacterial 16S RNA ribosomal A site by surface plasmon technique
row,Kd [µM],SMILES
1,13,NC[C@H]1O[C@H](O[C@H]2[C@@H](NCCNC(=O)[C@H]3O[C@@H](n4ccc(=O)[nH]c4=O)[C@H](O)[C@@H]3O)[C@@H](O)[C@H](N)C[C@@H]2N)[C@H](N)[C@@H](O)[C@@H]1O
2,79,NC[C@H]1O[C@H](O[C@H]2[C@@H](NCCNC(=O)[C@H]3O[C@@H](n4ccc(N)nc4=O)[C@H](O)[C@@H]3O)[C@@H](O)[C@H](N)C[C@@H]2N)[C@H](N)[C@@H](O)[C@@H]1O
3,9,Cc1cn([C@H]2C[C@H](O)[C@@H](C(=O)NCCN[C@H]3[C@@H](O)[C@H](N)C[C@H](N)[C@H]3O[C@H]3O[C@H](CN)[C@@H](O)[C@H](O)[C@H]3N)O2)c(=O)[nH]c1=O
4,10,NC[C@H]1O[C@H](O[C@H]2[C@@H](NCCNC(=O)[C@H]3O[C@@H](n4cnc5c(N)ncnc54)[C@H](O)[C@@H]3O)[C@@H](O)[C@H](N)C[C@@H]2N)[C@H](N)[C@@H](O)[C@@H]1O
5,38,Cc1cn([C@@H]2O[C@H](C(=O)NCCCCCCN[C@H]3[C@@H](O)[C@H](N)C[C@H](N)[C@H]3O[C@H]3O[C@H](CN)[C@@H](O)[C@H](O)[C@H]3N)[C@@H](O)[C@H]2O)c(=O)[nH]c1=O
6,104,NC[C@H]1O[C@H](O[C@H]2[C@@H](NCCCCCCNC(=O)[C@H]3O[C@@H](n4ccc(N)nc4=O)[C@H](O)[C@@H]3O)[C@@H](O)[C@H](N)C[C@@H]2N)[C@H](N)[C@@H](O)[C@@H]1O
7,56,Cc1cn([C@H]2C[C@H](O)[C@@H](C(=O)NCCCCCCN[C@H]3[C@@H](O)[C@H](N)C[C@H](N)[C@H]3O[C@H]3O[C@H](CN)[C@@H](O)[C@H](O)[C@H]3N)O2)c(=O)[nH]c1=O
8,17,NC[C@H]1O[C@H](O[C@H]2[C@@H](NCCCCCCNC(=O)[C@H]3O[C@@H](n4cnc5c(N)ncnc54)[C@H](O)[C@@H]3O)[C@@H](O)[C@H](N)C[C@@H]2N)[C@H](N)[C@@H](O)[C@@H]1O

# Further lines, the compound ahead of its results:
row,SMILES,Kd [µM]
1,Cc1cn([C@H]2C[C@H](O)[C@@H](CSCCO[C@@H]3O[C@H](CO[C@@H]4O[C@H](CN)[C@@H](O)[C@H](O)[C@H]4N)[C@@H](O)[C@H](O)[C@H]3N)O2)c(=O)[nH]c1=O,370
2,NC[C@H]1O[C@@H](OC[C@H]2O[C@@H](SCCCCCCSC[C@H]3O[C@@H](n4ccc(=O)[nH]c4=O)[C@H](O)[C@@H]3O)[C@H](N)[C@@H](O)[C@@H]2O)[C@H](N)[C@@H](O)[C@@H]1O,1100
3,NC[C@H]1O[C@@H](OC[C@H]2O[C@@H](OC[C@H]3O[C@@H](n4ccc(=O)[nH]c4=O)[C@H](O)[C@@H]3O)[C@H](N)[C@@H](O)[C@@H]2O)[C@H](N)[C@@H](O)[C@@H]1O,2000
4,Cc1cn([C@H]2C[C@H](O)[C@@H](CO[C@@H]3O[C@H](CO[C@@H]4O[C@H](CN)[C@@H](O)[C@H](O)[C@H]4N)[C@@H](O)[C@H](O)[C@H]3N)O2)c(=O)[nH]c1=O,667
5,Cc1cn([C@H]2C[C@H](O)[C@@H](CSCCCCCCS[C@@H]3O[C@H](COC4O[C@H](CN)[C@@H](O)[C@H](O)[C@H]4N)[C@@H](O)[C@H](O)[C@H]3O)O2)c(=O)[nH]c1=O (stereo partly specified),400
6,NC[C@H]1O[C@@H](OC[C@H]2O[C@@H](OCCSC[C@H]3O[C@@H](n4ccc(N)nc4=O)[C@H](O)[C@@H]3O)[C@H](N)[C@@H](O)[C@@H]2O)[C@H](N)[C@@H](O)[C@@H]1O,667
7,Cc1cn([C@H]2C[C@H](O)[C@@H](CSCCCCCCS[C@@H]3O[C@H](CN)[C@@H](O)[C@H](O)[C@H]3O)O2)c(=O)[nH]c1=O,117
8,NC[C@H]1O[C@@H](SCCCCCCSC[C@H]2O[C@@H](n3ccc(=O)[nH]c3=O)[C@H](O)[C@@H]2O)[C@H](N)[C@@H](O)[C@@H]1O,1250

# — ChEMBL document CHEMBL1158176, “Flexible computational docking studies of new aminoglycosides targeting RNA 16S bacterial ribosome site” (Eur J Med Chem, 2008)
